Results on 20 molecules are retold here after patent publication US7820700B2, “2-phenylpyridine derivative” (Astellas Pharma Inc., priority 2004, dated 2010).

The structures appear in SMILES notation. Where a name gives a salt, the structure may show the parent alone. A value given as a limit tells only on which side of the number the result lay.

T2 sequence (P80457 whole entry): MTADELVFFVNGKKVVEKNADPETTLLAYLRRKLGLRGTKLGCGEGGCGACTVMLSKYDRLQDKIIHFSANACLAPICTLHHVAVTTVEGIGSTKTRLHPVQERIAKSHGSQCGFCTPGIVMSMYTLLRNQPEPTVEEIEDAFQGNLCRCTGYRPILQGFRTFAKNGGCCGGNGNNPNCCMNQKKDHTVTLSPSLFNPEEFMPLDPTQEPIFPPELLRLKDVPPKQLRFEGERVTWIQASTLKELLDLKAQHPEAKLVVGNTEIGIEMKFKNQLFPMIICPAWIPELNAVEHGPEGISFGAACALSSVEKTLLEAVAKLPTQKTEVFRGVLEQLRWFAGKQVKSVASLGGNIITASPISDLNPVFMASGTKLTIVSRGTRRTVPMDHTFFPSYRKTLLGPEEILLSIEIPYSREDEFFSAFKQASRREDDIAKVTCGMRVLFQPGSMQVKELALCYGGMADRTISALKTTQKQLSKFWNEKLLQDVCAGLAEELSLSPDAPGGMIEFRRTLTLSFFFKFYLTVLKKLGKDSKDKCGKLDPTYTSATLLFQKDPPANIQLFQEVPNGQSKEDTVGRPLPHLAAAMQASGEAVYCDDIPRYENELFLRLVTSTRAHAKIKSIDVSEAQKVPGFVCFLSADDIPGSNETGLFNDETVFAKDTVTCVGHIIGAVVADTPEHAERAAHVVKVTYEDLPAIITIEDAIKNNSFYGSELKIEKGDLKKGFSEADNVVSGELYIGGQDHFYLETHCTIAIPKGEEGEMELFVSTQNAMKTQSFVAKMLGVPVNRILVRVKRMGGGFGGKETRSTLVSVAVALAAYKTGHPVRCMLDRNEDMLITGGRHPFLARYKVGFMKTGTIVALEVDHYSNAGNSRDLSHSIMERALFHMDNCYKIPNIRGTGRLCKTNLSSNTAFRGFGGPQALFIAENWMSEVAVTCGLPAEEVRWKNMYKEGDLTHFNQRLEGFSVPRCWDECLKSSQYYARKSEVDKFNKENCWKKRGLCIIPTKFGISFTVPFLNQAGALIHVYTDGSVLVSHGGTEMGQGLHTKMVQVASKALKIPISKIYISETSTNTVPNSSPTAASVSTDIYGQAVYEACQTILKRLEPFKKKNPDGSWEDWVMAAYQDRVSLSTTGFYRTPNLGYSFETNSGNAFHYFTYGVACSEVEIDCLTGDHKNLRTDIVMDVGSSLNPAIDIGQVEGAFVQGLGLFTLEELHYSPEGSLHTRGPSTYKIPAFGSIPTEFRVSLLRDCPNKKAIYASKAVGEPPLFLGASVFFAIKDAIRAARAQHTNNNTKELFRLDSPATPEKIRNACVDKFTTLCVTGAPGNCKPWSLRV

The first data set relates to TNBS-induced enteritis. Kind of data set: Trinitrobenzenesulfonic acid-induced enteritis-inhibitory action. To be noted: 3 mg/kg oral once a day, dissection on 21st day, Wistar rat. In kind it is in vivo, male Wistar rats. The protocol:
The effectiveness of the compound of the invention on an enteritis model can be also evaluated by a model using trinitrobenzenesulfonic acid (TNBS) as an inducing agent instead of acetic acid (Cell. Mol. Biol, 38, 189-199, 1992). Thus, referring to the method described in the report, the enteritis-suppressing action of the compound of the invention was evaluated.
Namely, TNBS or physiological saline as a normal group was administered into the rectum of male Wistar rats of 200 to 250 g. Thereafter, a test compound or 0.5% methyl cellulose (control group) was orally administered once a day and dissection was performed on each administered group on 21st day. A part of the large intestine 2 to 7 cm from the anus side was cut out and incised. After feces were removed by means of tweezers, the part was washed and a score of morbid conditions was evaluated and tissue weight was measured. The score of morbid conditions and a tissue weight increase-suppressing ratio were calculated as in the evaluation method of the above acetic acid-induced enteritis-suppressing action.
Take `N#Cc1cc(-c2cc(C(=O)O)ccn2)ccc1N1CCCCCC1` [Example 4, 2-(4-azepan-1-yl-3-cyanophenyl)isonicotinic acid monohydrochloride]: the “Suppression of intestinal tissue weight increase” value is recorded as at least 70%.

The next data set has as its target T1, AKR1C3 (17βHSD5) (Homo sapiens, UniProt P42330).
T1 sequence (P42330 1-323): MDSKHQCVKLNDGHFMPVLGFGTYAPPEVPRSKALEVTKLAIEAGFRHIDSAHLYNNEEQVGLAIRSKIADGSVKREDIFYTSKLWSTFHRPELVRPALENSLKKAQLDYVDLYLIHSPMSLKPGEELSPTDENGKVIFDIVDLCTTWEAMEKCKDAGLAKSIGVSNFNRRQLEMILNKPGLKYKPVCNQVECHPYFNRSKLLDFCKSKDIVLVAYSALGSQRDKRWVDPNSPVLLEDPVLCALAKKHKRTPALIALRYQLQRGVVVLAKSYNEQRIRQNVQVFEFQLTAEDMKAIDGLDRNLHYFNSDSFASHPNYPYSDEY
The experiment in a line: AKR1C3 inhibitory action (DELFIA Testosterone Reagents). In kind it is biochemical. To be noted: read-out: IC50 (AKR1C3 inhibition). An excerpt: AKR1C3 known as a molecule belonging to aldo-keto reductase is known as a multifunctional enzyme (Jikken Igaku 23, 90-97, 2005). There is expected the application of a compound inhibiting AKR1C3 to various morbid conditions including inflammatory diseases (Mol. Pharmacol 67, 60-68, 2005) (Current Pharmaceutical Design 10, 3505-3524, 2004) (J. Biol. Chem 273, 1855-1888, 1998).
Turning to `N#Cc1cc(-c2cc(C(=O)O)ccn2)ccc1N1CCCCCC1` [Example 4, 2-(4-azepan-1-yl-3-cyanophenyl)isonicotinic acid monohydrochloride], the IC50 is at most 1000 nM.

The next data set has as its target T2, xanthine oxidase (derived from butter milk) (Bos taurus, UniProt P80457).
T2 construct: xanthine oxidase (derived from butter milk, manufactured by Sigma); purchased Sigma; host or cells: butter milk (natural source)
The experiment in a line: Xanthine oxidase-inhibitory activity (pterin oxidation, fluorescence). The format is biochemical. The note with it: pterin 5 μM, room temperature; read-out: IC50 (xanthine oxidase inhibition). As for the experimental part: A test compound was dissolved in DMSO (manufactured by Nakarai) so as to be a concentration of 10 mM and then used after the concentration was adjusted to an aimed one at use.
The evaluation of xanthine oxidase-inhibitory activity of the compound of the invention was carried out using a method described in a document (Free Radic. Biol. Med. 6, 607-615, 1992) with partial modification. Namely, xanthine oxidase (derived from butter milk, manufactured by Sigma) was adjusted to 0.03 units/ml using a 50 mM phosphate buffer and was added to a 96-well plate in an amount of 50 μl/well. Each test compound diluted so as to be a final concentration was added thereto in an amount of 2 μl/well, followed by treatment at room temperature for 20 minutes. Pterin (manufactured by Sigma) was added thereto so as to be a final concentration of 5 μM, followed by reaction at room temperature for 10 minutes. Measurement was performed using a microplate reader saphire (manufactured by Tecan) under conditions of excitation at 345 nm and emission at 390 nm (pterin was oxidized by xanthine oxidase into isoxanthopterin, which emitted a light under the conditions).
The concentration of the test compound at which 50% inhibition was observed (IC50 value) was calculated, the emissions of isoxanthopterin under conditions of the presence or absence of xanthine oxidase being 0% inhibition and 100% inhibition, respectively.
On to `CC(C)COc1ccc(-c2cc(C(=O)O)ccn2)cc1C#N` [Example 1, 2-(3-cyano-4-isobutoxyphenyl)isonicotinic acid], for which the IC50 was 3.6 nM.
On the same count and under the same terms, under `CSCCCOc1ccc(-c2cc(C(=O)O)ccn2)cc1C#N` [Example 3, 2-{3-cyano-4-[3-(methylthio)propoxy]phenyl}isonicotinic acid] stands 5 nM.
As to `N#Cc1cc(-c2cc(C(=O)O)ccn2)ccc1N1CCCCCC1` [Example 4, 2-(4-azepan-1-yl-3-cyanophenyl)isonicotinic acid monohydrochloride], the IC50 was 1.2 nM.
Same read-out and setting: the figure for `CC(C)CSc1ccc(-c2cnccc2C(=O)O)cc1C#N` [Example 7, sodium 5-[3-cyano-4-(isobutylthio)phenyl]isonicotinate] is 2.5 nM; for `N#Cc1cc(-c2cc(C(=O)O)ccn2)ccc1OCc1ccccc1` [Example 9] it is 2.6 nM; for `N#Cc1cc(-c2cc(C(=O)O)ccn2)ccc1OCC(F)(F)F` [Example 13] it is 10 nM.
Still for that read-out and setting: under `N#Cc1cc(-c2cc(C(=O)O)ccn2)ccc1OC1CCOCC1` [Example 14] stands 4.1 nM; under `N#Cc1cc(-c2cc(C(=O)O)ccn2)ccc1OCc1ccccn1` [Example 21], 10 nM.
Still for that read-out and setting: under `N#Cc1cc(-c2cc(C(=O)O)ccn2)ccc1OCCOc1ccccc1` [Example 30] stands 4.2 nM; under `N#Cc1cc(-c2cc(C(=O)O)ccn2)ccc1OCCOc1cc(F)cc2c1OCCC2` [Example 33], 7.3 nM; under `CC1(C)CC(Oc2ccc(-c3cc(C(=O)O)ccn3)cc2C#N)CC(C)(C)C1` [Example 44], 4.3 nM.
On to `CC1CCN(c2ccc(-c3cc(C(=O)O)ccn3)cc2C#N)CC1` [Example 45], for which the IC50 came to 1.3 nM.
With `N#Cc1cc(-c2cc(C(=O)O)ccn2)ccc1N1CC=CCC1` [Example 49], the IC50 is 2.8 nM.
On the same count and under the same terms, the figure for `CCCCN(C)c1ccc(-c2cc(C(=O)O)ccn2)cc1C#N` [Example 57] is 3.1 nM; for `N#Cc1cc(-c2cc(C(=O)O)ccn2)ccc1NC1CCCCCC1` [Example 63] it is 1.1 nM; for `COC1(C2CCCCC2)CCN(c2ccc(-c3cc(C(=O)O)ccn3)cc2C#N)CC1` [Example 67] it is 2.2 nM.
As to `CC(C)=CCOc1ccc(-c2cc(C(=O)O)ccn2)cc1C#N` [Example 72], the IC50 was determined as 3.1 nM.
The same measure, in the same setting: the figure for `CC(C)COc1ccc(-c2nccc(C(=O)O)c2F)cc1C#N` [Example 75] is 3.2 nM; for `CC(C)COc1ccc(-c2cc(C(=O)O)c(Cl)cn2)cc1C#N` [Example 77] it is 4 nM.
On the same count and under the same terms, the figure for `CC(C)COc1c(Br)cc(-c2cc(C(=O)O)ccn2)cc1C#N` [Example 79] is 5.8 nM.

Another data set deals with pyrimidine synthetic pathway (BUN level). The experiment in a line: Pyrimidine synthetic pathway-inhibitory action (influence on BUN level). The note with it: oral administration of 30 mg/kg. The format is in vivo. An excerpt:
Allopurinol which is an existing hyperuricemia therapeutic drug is known to cause renal dysfunction as an undesirable action. As mentioned previously, since allopurinol has a nucleic acid-like structure, as one cause thereof, it is presumed that it inhibits pyrimidine synthetic pathway. […] Thus, according to the method described in the document, the influence of the compounds of the invention on a BUN level was confirmed.
As for `N#Cc1cc(-c2cc(C(=O)O)ccn2)ccc1N1CCCCCC1` [Example 4, 2-(4-azepan-1-yl-3-cyanophenyl)isonicotinic acid monohydrochloride], the “Pyrimidine synthetic pathway inhibitory action (BUN level)” value is given as “no inhibitory action”.
The same measure, in the same setting: under `CC1CCN(c2ccc(-c3cc(C(=O)O)ccn3)cc2C#N)CC1` [Example 45] stands “no inhibitory action”.

The test system of another data set is VEGF mRNA in the vitreous body. The experiment in a line: Diabetic retinopathy model (streptozotocin), VEGF mRNA in the vitreous body. The format is in vivo, male Wistar rat. To be noted: 30 mg/kg oral once a day for 7 days, STZ rats, vs control group. The protocol: The efficiency of the compound of the invention on diabetic retinopathy was tested by the method described in European Journal of Pharmacology 458 (2003) 283-289 (except that the animal used in the experiment was male Wistar rat, 10 weeks old).
Streptozotocin (STZ) was administered to the animals to be tested and increase in blood sugar level was confirmed after 24 hours. Thereafter, the animals were divided into a 0.5% methyl cellulose-administered group (control group) and 30 mg/kg test compound-administered group and oral administration was performed once a day for 7 days.
For `N#Cc1cc(-c2cc(C(=O)O)ccn2)ccc1N1CCCCCC1` [Example 4, 2-(4-azepan-1-yl-3-cyanophenyl)isonicotinic acid monohydrochloride], the “Suppression of increase of VEGF mRNA in the vitreous body” value is “significant suppressing action”.
